From ChEMBL document CHEMBL1158808, “Eunicellin-based diterpenoids, australins A-D, isolated from the soft coral Cladiella australis” (2005) come the findings set out here.

In brackets after ≈: the same amount, converted by molar mass.

Type in all cases: functional
One assay deals with MDA-MB-231. The assay is described as follows: Cytotoxicity against human MDA-MB-231 cells after 6 days by MTT assay. The conditions noted are these: MDA-MB-231, 144 h, read-out: ED50 (the source's name).
The test system of the next assay is HepG2. The assay is described as follows: Cytotoxicity against human HepG2 cells after 6 days by MTT assay in presence of DMEM12. The conditions noted are these: HepG2, 144 h, read-out: ED50 (the source's name).
A further assay has as its system MCF7. Kind of assay: Cytotoxicity against human MCF7 cells after 6 days by MTT assay. The conditions noted are these: MCF7, 144 h, read-out: ED50 (the source's name).

For the compound `C=C1C[C@@]2(O)O[C@H]([C@@H]3[C@@H](C(C)C)CC[C@@](C)(OC(=O)CCC)[C@@H]32)[C@](C)(O)CC[C@@H]1OC(C)=O` [AUSTARLIN B], the values for the EC50 in the assay with MDA-MB-231, in the assay with HepG2 and in the assay with MCF7 were 6.4 µg/mL (≈ 13.7 µM), 2.4 µg/mL and 8.6 µg/mL (≈ 18.4 µM), respectively.

For `C=C1CC[C@H]([C@@H](C)CO)[C@@H]2[C@H]1C(=O)C[C@@](C)(O)[C@H]1CC[C@@](C)(OC(=O)CCC)[C@@H]2O1` [AUSTARLIN D], the EC50 in the assay on MDA-MB-231 was 24.4 µg/mL (≈ 57.7 µM).
